Legend:
[1] = tested on: Escherichia coli MC4100 harboring the IMP4213; experiment: MIC, broth micro-dilution technique (CLSI); format: cell-based; settings: Table 1 protocol: serial 2-fold dilutions starting from 64 μg/ml; 35° C., 22 hours
How it was run: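 MICs determined after 35 °C, 22 h incubation of bacteria (final OD600 0.0005) with 10-point 2-fold compound series. Series topped at 64 μg/ml in the standard protocol or 4 μg/mL in the modified one. Medium: cation-adjusted Mueller Hinton broth plus 0.002% Tween-80. E. coli MC4100 imp4213 has a permeabilized outer membrane.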

[2] = tested on: Methicillin Resistant Staphylococcus aureus strain USA 300 (NRS384); experiment: MIC, broth micro-dilution technique (CLSI); format: cell-based; settings: Table 1 protocol: serial 2-fold dilutions starting from 64 μg/ml; 35° C., 22 hours
How it was run: (§1)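 CLSI broth microdilution in cation-adjusted Mueller Hinton broth with 0.002% v/v Tween-80. Compounds were serially 2-fold diluted over 10 concentrations from 64 μg/ml, or from 4 μg/mL in a modified protocol; inoculum at final OD600 0.0005, incubated 35° C for 22 hours.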

[3] = tested on: MRSA COL (NRS100); experiment: MIC, broth micro-dilution technique (CLSI); format: cell-based, Staphylococcus aureus; settings: Table 1 protocol: serial 2-fold dilutions starting from 64 μg/ml; 35° C., 22 hours
How it was run: as §1

[4] = tested on: MRSA strain USA300; experiment: Time-kill assay; format: cell-based, Staphylococcus aureus; settings: 1 ug/mL imipenem plus 16 ug/mL Compound 155; initial density 1*10^7 cfu/mL; FIG. 2
Procedure: Time-kill experiments enable quantification of rate of bacterial growth or death in the presence of a fixed concentration of one or more antibiotics (Arhin. F., et. al., Current Protocols in Microbiology 17.1.1-17.1.22, February 2010). Time-kill experiments were performed in 96-well incubation plates using Mueller Hinton II Broth+0.002% Tween-80 as the growth media. Individual wells contained imipenem alone, Compound 155 alone, or a combination of both agents at various concentrations. MRSA strain USA300 was grown overnight at 35° C. on Mueller Hinton Agar plates, and colonies were suspended in Mueller Hinton II Broth+0.002% Tween-80 to a final density of 2*10^8 cfu/mL. To each well of the incubation plates, 5 uL of this suspension were added, resulting in an initial density of 1*10^7 cfu/mL. Plates were incubated at 35° C., and at various time points 30 ul samples were removed, mixed 1:1 with 25 mg/ml activated carbon, serially diluted in sterile phosphate buffered saline supplemented with 0.05% Tween 20, and spotted onto Mueller Hinton Agar plates to enable cfu quantification. Colonies were counted and the cfu/ml at each time point calculated by based on the dilution factor and volume spotted.

[5] = tested on: MRSA strain USA300; experiment: SIC determination with partner beta-lactam antibiotics; format: cell-based, Staphylococcus aureus
Procedure: Many compounds in the Examples, including Compound 155, synergize with a wide range of beta-lactam antibiotics as quantified by SIC determination, where the SIC is measured and defined in a manner identical to the MIC, […] being tested.

Structure (SMILES): CCCCCCCCCCNCCC(=O)N[C@@H](CCCCN)C(=O)N(C)[C@@H]1C(=O)N[C@@H](C)C(=O)N[C@H](C(=O)N[C@@H](C)C(=O)N2CCC[C@H]2C(N)=O)Cc2ccc(O)c(c2)-c2cc1ccc2O.O=CO [Compound 155]
- MIC (μg/mL) E. coli [1]: 64 µg/mL
- MIC (μg/mL) S. aureus [2]: 2.8 µg/mL
- MIC (μg/mL) (COL) [3]: 1.3 µg/mL
- time-kill: reduction of viable cells, combination compared with either agent alone [4]: synergistic
- Compound 155 SIC ([5]; MRSA strain USA300, media contains partner beta-lactam Amoxicillin/Clav at 1/4x its MIC): 0.25 µg/mL
- Compound 155 SIC ([5]; MRSA strain USA300, media contains partner beta-lactam Ampicillin at 1/4x its MIC): 1 µg/mL
- Compound 155 SIC ([5]; MRSA strain USA300, media contains partner beta-lactam Azlocillin at 1/4x its MIC): 1 µg/mL
- Compound 155 SIC ([5]; MRSA strain USA300, media contains partner beta-lactam Biapenem at 1/4x its MIC): 0.0625 µg/mL
- Compound 155 SIC ([5]; MRSA strain USA300, media contains partner beta-lactam Carbenicillin at 1/4x its MIC): 0.5 µg/mL
- Compound 155 SIC ([5]; MRSA strain USA300, media contains partner beta-lactam Cefaclor at 1/4x its MIC): 0.25 µg/mL
- Compound 155 SIC ([5]; MRSA strain USA300, media contains partner beta-lactam Cefamandole at 1/4x its MIC): 0.25 µg/mL
- Compound 155 SIC ([5]; MRSA strain USA300, media contains partner beta-lactam Cefazolin at 1/4x its MIC): 0.125 µg/mL
- Compound 155 SIC ([5]; MRSA strain USA300, media contains partner beta-lactam Cefdinir at 1/4x its MIC): ≤0.0156 µg/mL
- Compound 155 SIC ([5]; MRSA strain USA300, media contains partner beta-lactam Cefepime at 1/4x its MIC): 0.125 µg/mL
- Compound 155 SIC ([5]; MRSA strain USA300, media contains partner beta-lactam Cefixime at 1/4x its MIC): 0.25 µg/mL
- Compound 155 SIC ([5]; MRSA strain USA300, media contains partner beta-lactam Cefmetazole at 1/4x its MIC): 0.5 µg/mL
- Compound 155 SIC ([5]; MRSA strain USA300, media contains partner beta-lactam Cefonicid at 1/4x its MIC): 0.25 µg/mL
- Compound 155 SIC ([5]; MRSA strain USA300, media contains partner beta-lactam Cefotaxime at 1/4x its MIC): 0.125 µg/mL
- Compound 155 SIC ([5]; MRSA strain USA300, media contains partner beta-lactam Cefotetan at 1/4x its MIC): 0.5 µg/mL
- Compound 155 SIC ([5]; MRSA strain USA300, media contains partner beta-lactam Cefoxitin at 1/4x its MIC): 0.25 µg/mL
- Compound 155 SIC ([5]; MRSA strain USA300, media contains partner beta-lactam Cefpodoxime at 1/4x its MIC): 0.125 µg/mL
- Compound 155 SIC ([5]; MRSA strain USA300, media contains partner beta-lactam Cefprozil at 1/4x its MIC): 0.25 µg/mL
- Compound 155 SIC ([5]; MRSA strain USA300, media contains partner beta-lactam Ceftazidime at 1/4x its MIC): 0.5 µg/mL
- Compound 155 SIC ([5]; MRSA strain USA300, media contains partner beta-lactam Ceftizoxime at 1/4x its MIC): 0.25 µg/mL
- Compound 155 SIC ([5]; MRSA strain USA300, media contains partner beta-lactam Ceftriaxone at 1/4x its MIC): 0.0625 µg/mL
- Compound 155 SIC ([5]; MRSA strain USA300, media contains partner beta-lactam Cephalothin at 1/4x its MIC): 0.0625 µg/mL
- Compound 155 SIC ([5]; MRSA strain USA300, media contains partner beta-lactam Doripenem at 1/4x its MIC): 0.125 µg/mL
- Compound 155 SIC ([5]; MRSA strain USA300, media contains partner beta-lactam Ertapenem at 1/4x its MIC): 0.25 µg/mL
- Compound 155 SIC ([5]; MRSA strain USA300, media contains partner beta-lactam Faropenem at 1/4x its MIC): ≤0.0156 µg/mL
- Compound 155 SIC ([5]; MRSA strain USA300, media contains partner beta-lactam Imipenem at 1/4x its MIC): 0.125 µg/mL
- Compound 155 SIC ([5]; MRSA strain USA300, media contains partner beta-lactam Mecillinam at 1/4x its MIC): 1 µg/mL
- Compound 155 SIC ([5]; MRSA strain USA300, media contains partner beta-lactam Meropenem at 1/4x its MIC): 0.25 µg/mL
- Compound 155 SIC ([5]; MRSA strain USA300, media contains partner beta-lactam Methicillin at 1/4x its MIC): 0.25 µg/mL
- Compound 155 SIC ([5]; MRSA strain USA300, media contains partner beta-lactam Mezlocillin at 1/4x its MIC): 0.5 µg/mL
- Compound 155 SIC ([5]; MRSA strain USA300, media contains partner beta-lactam Moxalactam at 1/4x its MIC): 0.125 µg/mL
- Compound 155 SIC ([5]; MRSA strain USA300, media contains partner beta-lactam Oxacillin at 1/4x its MIC): 0.125 µg/mL
- Compound 155 SIC ([5]; MRSA strain USA300, media contains partner beta-lactam Piperacillin/tazobactam at 1/4x its MIC): 0.5 µg/mL
- Compound 155 SIC ([5]; MRSA strain USA300, media contains partner beta-lactam Ticarcillin at 1/4x its MIC): 0.125 µg/mL
- Fold reduction in Compound 155 MIC ([5]; MRSA strain USA300, partner beta-lactam Amoxicillin/Clav at 1/4x its MIC): 16
- Fold reduction in Compound 155 MIC ([5]; MRSA strain USA300, partner beta-lactam Ampicillin at 1/4x its MIC): 4
- Fold reduction in Compound 155 MIC ([5]; MRSA strain USA300, partner beta-lactam Azlocillin at 1/4x its MIC): 4
- Fold reduction in Compound 155 MIC ([5]; MRSA strain USA300, partner beta-lactam Biapenem at 1/4x its MIC): 64
- Fold reduction in Compound 155 MIC ([5]; MRSA strain USA300, partner beta-lactam Carbenicillin at 1/4x its MIC): 8
- Fold reduction in Compound 155 MIC ([5]; MRSA strain USA300, partner beta-lactam Cefaclor at 1/4x its MIC): 16
- Fold reduction in Compound 155 MIC ([5]; MRSA strain USA300, partner beta-lactam Cefamandole at 1/4x its MIC): 16
- Fold reduction in Compound 155 MIC ([5]; MRSA strain USA300, partner beta-lactam Cefazolin at 1/4x its MIC): 32
- Fold reduction in Compound 155 MIC ([5]; MRSA strain USA300, partner beta-lactam Cefdinir at 1/4x its MIC): >256
- Fold reduction in Compound 155 MIC ([5]; MRSA strain USA300, partner beta-lactam Cefepime at 1/4x its MIC): 32
- Fold reduction in Compound 155 MIC ([5]; MRSA strain USA300, partner beta-lactam Cefixime at 1/4x its MIC): 16
- Fold reduction in Compound 155 MIC ([5]; MRSA strain USA300, partner beta-lactam Cefmetazole at 1/4x its MIC): 8
- Fold reduction in Compound 155 MIC ([5]; MRSA strain USA300, partner beta-lactam Cefonicid at 1/4x its MIC): 16
- Fold reduction in Compound 155 MIC ([5]; MRSA strain USA300, partner beta-lactam Cefotaxime at 1/4x its MIC): 32
- Fold reduction in Compound 155 MIC ([5]; MRSA strain USA300, partner beta-lactam Cefotetan at 1/4x its MIC): 8
- Fold reduction in Compound 155 MIC ([5]; MRSA strain USA300, partner beta-lactam Cefoxitin at 1/4x its MIC): 16
- Fold reduction in Compound 155 MIC ([5]; MRSA strain USA300, partner beta-lactam Cefpodoxime at 1/4x its MIC): 32
- Fold reduction in Compound 155 MIC ([5]; MRSA strain USA300, partner beta-lactam Cefprozil at 1/4x its MIC): 16
- Fold reduction in Compound 155 MIC ([5]; MRSA strain USA300, partner beta-lactam Ceftazidime at 1/4x its MIC): 8
- Fold reduction in Compound 155 MIC ([5]; MRSA strain USA300, partner beta-lactam Ceftizoxime at 1/4x its MIC): 16
- Fold reduction in Compound 155 MIC ([5]; MRSA strain USA300, partner beta-lactam Ceftriaxone at 1/4x its MIC): 64
- Fold reduction in Compound 155 MIC ([5]; MRSA strain USA300, partner beta-lactam Cephalothin at 1/4x its MIC): 64
- Fold reduction in Compound 155 MIC ([5]; MRSA strain USA300, partner beta-lactam Doripenem at 1/4x its MIC): 32
- Fold reduction in Compound 155 MIC ([5]; MRSA strain USA300, partner beta-lactam Ertapenem at 1/4x its MIC): 16
- Fold reduction in Compound 155 MIC ([5]; MRSA strain USA300, partner beta-lactam Faropenem at 1/4x its MIC): >256
- Fold reduction in Compound 155 MIC ([5]; MRSA strain USA300, partner beta-lactam Imipenem at 1/4x its MIC): 32
- Fold reduction in Compound 155 MIC ([5]; MRSA strain USA300, partner beta-lactam Mecillinam at 1/4x its MIC): 4
- Fold reduction in Compound 155 MIC ([5]; MRSA strain USA300, partner beta-lactam Meropenem at 1/4x its MIC): 16
- Fold reduction in Compound 155 MIC ([5]; MRSA strain USA300, partner beta-lactam Methicillin at 1/4x its MIC): 16
- Fold reduction in Compound 155 MIC ([5]; MRSA strain USA300, partner beta-lactam Mezlocillin at 1/4x its MIC): 8
- Fold reduction in Compound 155 MIC ([5]; MRSA strain USA300, partner beta-lactam Moxalactam at 1/4x its MIC): 32
- Fold reduction in Compound 155 MIC ([5]; MRSA strain USA300, partner beta-lactam Oxacillin at 1/4x its MIC): 32
- Fold reduction in Compound 155 MIC ([5]; MRSA strain USA300, partner beta-lactam Piperacillin/tazobactam at 1/4x its MIC): 8
- Fold reduction in Compound 155 MIC ([5]; MRSA strain USA300, partner beta-lactam Ticarcillin at 1/4x its MIC): 32
- Compound 155 MIC ([5]; MRSA strain USA300, partner beta-lactam: None): 4 µg/mL
- synergy with beta-lactam antibiotics as quantified by SIC determination ([5]; SIC less than or equal to 1/4 MIC means sum of the FICs ≤0.5, indicating synergy): synergize

Source: US10392422B2, “Macrocyclic broad spectrum antibiotics” (priority 2014, dated 2019)
